What was measured:
NCI-H2122 cells [1] = experiment: Spheroid cell viability assay (CellTiter-Glo 3D); format: cell-based; conditions: Homo sapiens; NCI-H2122, lung, KRAS p.G12C homozygous; 72-hour treatment, spheroid culture
Experimental: (§1) For spheroid viability assays, 2.5-4.0E+04 cells were seeded per well in 96-well spheroid microplates (Corning) and incubated at 37° C., 5% CO2 for 24 hours. The same procedure was followed as described above, except viability was measured using a CellTiter-Glo® 3D Cell Viability Assay kit (Promega) according to the manufacturer's protocol.

NCI-H358 cells [2] = experiment: Spheroid cell viability assay (CellTiter-Glo 3D); format: cell-based; conditions: Homo sapiens; NCI-H358, lung, KRAS p.G12C heterozygous; 72-hour treatment, spheroid culture
Experimental: as §1

MIA PaCa-2 cells [3] = experiment: Spheroid cell viability assay (CellTiter-Glo 3D); format: cell-based; conditions: Homo sapiens; MIA PaCa-2, pancreas, KRAS p.G12C homozygous; 72-hour treatment, spheroid culture
Experimental: as §1

SW1573 cells [4] = experiment: Spheroid cell viability assay (CellTiter-Glo 3D); format: cell-based; conditions: Homo sapiens; SW1573, lung, KRAS p.G12C homozygous; 72-hour treatment, spheroid culture
Experimental: as §1

NCI-H1373 cells [5] = experiment: Spheroid cell viability assay (CellTiter-Glo 3D); format: cell-based; conditions: Homo sapiens; NCI-H1373, lung, KRAS p.G12C homozygous; 72-hour treatment, spheroid culture
Experimental: as §1

UM-UC-3 cells = experiment: Cell viability assay (CellTiter-Glo, adherent); format: cell-based; conditions: Homo sapiens, UMUC3, UM-UC-3, bladder, KRAS p.G12C homozygous, 72-hour treatment
Experimental: (§2) For adherent viability assays, 0.5-1.0E+03 cells were seeded per well in 384-well plates (or 2.5-4.0E+04 cells per well in 96-well plates) and incubated at 37° C., 5% CO2, o/n. The following day, serially-diluted compound or DMSO was added to the cells, and the plates were incubated at 37° C., 5% CO2 for 72 hours. Cell viability was measured using a CellTiter-Glo® Luminescent Cell Viability Assay kit (Promega) according to the manufacturer's protocol. The luminescence signal of treated samples was normalized to DMSO control.

NCI-H2030 cells = experiment: Cell viability assay (CellTiter-Glo, adherent); format: cell-based; conditions: Homo sapiens, NCI-H2030, lung, KRAS p.G12C homozygous, 72-hour treatment
Experimental: as §2

NCI-H23 cells = experiment: Cell viability assay (CellTiter-Glo, adherent); format: cell-based; conditions: Homo sapiens, NCI-H23, lung, KRAS p.G12C heterozygous, 72-hour treatment
Experimental: as §2

SW1463 cells = experiment: Cell viability assay (CellTiter-Glo, adherent); format: cell-based; conditions: Homo sapiens, SW1463, colon, KRAS p.G12C homozygous, 72-hour treatment
Experimental: as §2

NCI-H2122 cells [6] = experiment: Cell viability assay (CellTiter-Glo, adherent); format: cell-based; conditions: Homo sapiens, NCI-H2122, lung, KRAS p.G12C homozygous, 72-hour treatment
Experimental: as §2

HCC-827 cells = experiment: Cell viability assay (CellTiter-Glo, adherent); format: cell-based; conditions: Homo sapiens, HCC827, HCC-827, lung, KRAS WT EGFR p.E746_A750del, 72-hour treatment
Experimental: as §2

KM12 cells = experiment: Cell viability assay (CellTiter-Glo, adherent); format: cell-based; conditions: Homo sapiens, KM12, colon, KRAS WT TPM3-NTRK fusion, 72-hour treatment
Experimental: as §2

A-427 cells = experiment: Cell viability assay (CellTiter-Glo, adherent); format: cell-based; conditions: Homo sapiens, A-427, lung, KRAS p.G12D heterozygous, 72-hour treatment
Experimental: as §2

AsPC-1 cells = experiment: Cell viability assay (CellTiter-Glo, adherent); format: cell-based; conditions: Homo sapiens, ASPC1, AsPC-1, pancreas, KRAS p.G12D homozygous, 72-hour treatment
Experimental: as §2

SW837 cells = experiment: Cell viability assay (CellTiter-Glo, adherent); format: cell-based; conditions: Homo sapiens, SW837, colon, KRAS p.G12C heterozygous, 72-hour treatment
Experimental: as §2

A549 cells = experiment: Cell viability assay (CellTiter-Glo, adherent); format: cell-based; conditions: Homo sapiens, A549, lung, KRAS p.G12S homozygous, 72-hour treatment
Experimental: as §2

NCI-H1792 cells = experiment: Cell viability assay (CellTiter-Glo, adherent); format: cell-based; conditions: Homo sapiens, NCI-H1792, lung, KRAS p.G12C heterozygous, 72-hour treatment
Experimental: as §2

NCI-H1355 cells = experiment: Cell viability assay (CellTiter-Glo, adherent); format: cell-based; conditions: Homo sapiens, NCI-H1355, lung, KRAS p.G13C heterozygous, 72-hour treatment
Experimental: as §2

Calu-1 cells = experiment: Cell viability assay (CellTiter-Glo, adherent); format: cell-based; conditions: Homo sapiens, Calu-1, lung, KRAS p.G12C heterozygous, 72-hour treatment
Experimental: as §2

NCI-H358 cells [7] = experiment: Cell viability assay (CellTiter-Glo, adherent); format: cell-based; conditions: Homo sapiens, 72-hour treatment
Experimental: as §2

MIA PaCa-2 cells [8] = experiment: Cell viability assay (CellTiter-Glo, adherent); format: cell-based; conditions: Homo sapiens, 72-hour treatment
Experimental: as §2

SW1573 cells [9] = experiment: Cell viability assay (CellTiter-Glo, adherent); format: cell-based; conditions: Homo sapiens, SW1573, lung, KRAS p.G12C homozygous, 72-hour treatment
Experimental: as §2

NCI-H1322 cells = experiment: Cell viability assay (CellTiter-Glo, adherent); format: cell-based; conditions: Homo sapiens, 72 h, read-out: Cell Viability IC50
Experimental: as §2

NCI-H1373 cells [10] = experiment: Cell viability assay (CellTiter-Glo, adherent); format: cell-based; conditions: Homo sapiens, NCI-H1373, lung, KRAS p.G12C homozygous, 72-hour treatment
Experimental: as §2

LS 174T cells = experiment: Cell viability assay (CellTiter-Glo, adherent); format: cell-based; conditions: Homo sapiens, LS174T, colon, KRAS p.G12D heterozygous, 72-hour treatment
Experimental: as §2

SW480 cells = experiment: Cell viability assay (CellTiter-Glo, adherent); format: cell-based; conditions: Homo sapiens, SW480, colon, KRAS p.G12V homozygous, 72-hour treatment
Experimental: as §2

[11] = tested on: KRASp.G12V (SW480-1AC) tumor xenografts; experiment: Tumor xenograft efficacy study; format: in vivo, mouse
physchem = conditions: 5 mM glutathione

**Q.** With `C=CC(=O)N1CCN(c2nc(=O)n(-c3c(C)ccnc3C(C)C)c3nc(-c4c(O)cccc4F)c(F)cc23)[C@@H](C)C1` (atropisomer, axis not shown) [AMG 510, 6-fluoro-7-(2-fluoro-6-hydroxyphenyl)-1-(4-methyl-2-(2-propanyl)-3-pyridinyl)-4-((2S)-2-methyl-4-(2-propenoyl)-1-piperazinyl)pyrido[2,3-d]pyrimidin-2(1H)-one] as the molecule, how does the IC50 (NCI-H2122 cells [1]) read?
**A.** 9 ± 2 nM

**Q.** What about the IC50 (NCI-H358 cells [2]) of the same molecule?
**A.** 3 ± 2 nM

**Q.** What about the IC50 (MIA PaCa-2 cells [3]) of the same molecule?
**A.** 1 ± 1 nM

**Q.** What about the IC50 (SW1573 cells [4]) of the same molecule?
**A.** > 10000 nM

**Q.** What about the IC50 (NCI-H1373 cells [5]) of the same molecule?
**A.** 5 ± 2 nM

**Q.** What about the IC50 (UM-UC-3 cells) of the same molecule?
**A.** 5 ± 1 nM

**Q.** What about the IC50 (NCI-H2030 cells) of the same molecule?
**A.** 6 ± 3 nM

**Q.** And the IC50 (NCI-H23 cells)?
**A.** 6 ± 1 nM

**Q.** And the IC50 (SW1463 cells)?
**A.** 15 ± 7 nM

**Q.** And the IC50 (NCI-H2122 cells [6])?
**A.** 32 ± 5 nM

**Q.** And the IC50 (HCC-827 cells)?
**A.** > 7500 nM

**Q.** What about the IC50 (KM12 cells) of the same molecule?
**A.** > 7500 nM

**Q.** What about the IC50 (A-427 cells) of the same molecule?
**A.** > 7500 nM

**Q.** What about the IC50 (AsPC-1 cells) of the same molecule?
**A.** > 7500 nM

**Q.** What about the IC50 (SW837 cells) of the same molecule?
**A.** 9 ± 6 nM

**Q.** What about the IC50 (A549 cells) of the same molecule?
**A.** > 7500 nM

**Q.** What about the IC50 (NCI-H1792 cells) of the same molecule?
**A.** 11 ± 8 nM

**Q.** And the IC50 (NCI-H1355 cells)?
**A.** > 7500 nM

**Q.** What about the IC50 (Calu-1 cells) of the same molecule?
**A.** 4 ± 1 nM

**Q.** What about the IC50 (NCI-H358 cells [7]; first of two lines (FIG. 40G: NCI-H358), read-out: cellular viability IC50) of the same molecule?
**A.** ~6 nM

**Q.** And the IC50 (NCI-H358 cells [7]; NCI-H358, lung, KRAS p.G12C heterozygous, adherent, read-out: Cell Viability IC50)?
**A.** 4 ± 1 nM

**Q.** And the IC50 (MIA PaCa-2 cells [8]; second of two lines (FIG. 40G: MIA PaCa-2), read-out: cellular viability IC50)?
**A.** ~9 nM

**Q.** And the IC50 (MIA PaCa-2 cells [8]; MIA PaCa-2, pancreas, KRAS p.G12C homozygous, adherent, read-out: Cell Viability IC50)?
**A.** 5 ± 1 nM

**Q.** And the IC50 (SW1573 cells [9])?
**A.** > 7500 nM

**Q.** What about the IC50 (NCI-H1322 cells) of the same molecule?
**A.** > 7500 nM

**Q.** What about the IC50 (NCI-H1373 cells [10]) of the same molecule?
**A.** 20 ± 6 nM

**Q.** And the IC50 (LS 174T cells)?
**A.** > 7500 nM

**Q.** And the IC50 (SW480 cells)?
**A.** > 7500 nM

**Q.** What about the “tumor growth” value [11] of the same molecule?
**A.** no effect

**Q.** And the half-life (physchem)?
**A.** 3.27 h
